Reference: patent US10260089B2, “Compositions and methods for recognition of RNA using triple helical peptide nucleic acids” (The Research Foundation for the State University of New York, priority 2012, dated 2019)
Values joined by “and” are separate entries in the source; they are usually repeats but may differ in a detail not shown here. Equal entries are not always repeated. Ends that are not written are not given here.

How the values were obtained:
[1] = cited from earlier work
[2] = test system: ribosomal A-site model RNA hairpin HRP6; assay: ITC binding to bacterial ribosomal A-site model RNA hairpin HRP6 (Example 3); set-up: species or system Mycobacterium tuberculosis; conditions: sodium acetate buffer (pH 5.5)
[3] = test system: ribosomal A-site model RNA hairpin HRP5; assay: ITC binding to human ribosomal A-site model RNA hairpin HRP5 (Example 3); conditions: sodium acetate buffer (pH 5.5)
RNA hairpin HRP2 (A-U) [4] = assay: ITC binding of PNA and GPNA to RNA hairpin HRP2 (Example 3); conditions: for -ΔG / -ΔH / -ΔS: acetate pH 5.5
Procedure: (§1) Isothermal Titration calorimetry. In a typical ITC experiment, an RNA hairpin solution (0.95 mL, […]) in acetate buffer [100 mM sodium acetate and 1.0 mM EDTA (pH 5.5)] was titrated with a PNA solution (50×5 μL, […]) using a Nano ITC G2 (TA Instruments) calorimeter. For full experimental details and data, see the Supporting Information. The titration data were analyzed using NanoAnalyze (TA Instruments) using an independent model to obtain the fitting graph and thermodynamic binding data (Table 7).
To gain more insight into different binding modes, guanidine-modified variants of hexamer CTCTTC (PNA4) were prepared and studied their binding to HRP2. […] While there was very little dependence on the number of modifications in the D series (entries 7-9), in the L series (entries 10-12) the affinity appeared to decrease somewhat with an increasing number of guanidine modifications.

RNA hairpin HRP1 (G-C) [5] = assay: ITC binding of PNA and GPNA to RNA hairpin HRP1 (Example 3); conditions: for Ka: 100 mM sodium acetate and 1.0 mM EDTA (pH 5.5); for -ΔG / -ΔH / -ΔS: acetate pH 5.5
Procedure: as §1
The guanidine-modified PNA oligomers [GPNA (FIG. 10)] were made using the standard Fmoc synthesis protocols on the Expedite 8909 synthesizer and purified by reverse-phase high-performance liquid chromatography. […] To allow direct comparison, the same GPNA sequences were prepared (FIG. 10), like the PNA used in previous study of triple-helix formation with double-helical RNA. The binding of GPNA to RNA hairpin (HRP1) was studied using isothermal titration calorimetry [ITC (FIG. 11)]. […] Formation of the complex was further confirmed using circular dichroism (CD) spectroscopy. […] Addition of 4.5 equiv (conditions mimicking the end point of ITC titration) of D-GPNA1 and L-GPNA1 to HRP1 induced a decrease in the magnitude of the CD signal at 240-250 nm, which was clearly visible in the difference spectra. However, a significant increase around 280 nm was not observed. […] Overall, the CD spectra confirmed the formation of GPNA-RNA complexes.

DNA version of HRP1 = assay: ITC binding of GPNA to a DNA version of HRP1 (Example 3); conditions: acetate pH 5.5
Procedure: as §1
Binding of D-GPNA1 to the HRP1 hairpin, consistent with, made of deoxynucleotides (DNA version of HRP1) was weaker by ˜1 order of magnitude (cf., entries 2 and 4). In contrast, the affinity of L-GPNA1 for either the RNA or DNA hairpin was practically the same (cf., entries 3 and 5). Under physiologically relevant conditions [37° C., in 2 mM MgCl2, 90 mM KCl, 10 mM NaCl, and 50 mM potassium phosphate (pH 7.4)], no binding of D-GPNA1 to HRP1 was observed. The sequence of PNA3 was symmetric and thus provided optimal binding for formation of both a parallel triple helix and an antiparallel duplex, as required for triplex invasion (FIGS. 12A-12C).

RNA hairpin HRP3 (C-G) = assay: ITC binding of PNA and GPNA to RNA hairpin HRP3 (Example 3); conditions: sodium acetate buffer (pH 5.5)
Procedure: as §1
(§2) Next the sequence selectivity of binding of GPNA1 to all four RNA hairpins having a variable central base pair [HRP1-HRP4 (FIGS. 6 and 10)] was checked.

RNA hairpin HRP4 (U-A) = assay: ITC binding of PNA and GPNA to RNA hairpin HRP4 (Example 3); conditions: sodium acetate buffer (pH 5.5)
Procedure: as §1, §2

RNA hairpin HRP1 (G-C) [6] = assay: ITC binding of PNA and GPNA to RNA hairpin HRP1 (Example 3); conditions: 37° C., 2 mM MgCl2, 90 mM KCl, 10 mM NaCl, 50 mM potassium phosphate (pH 7.4)
RNA hairpin HRP2 (A-U) [7] = assay: ITC binding of PNA and GPNA to RNA hairpin HRP2 (Example 3); conditions: experiment of entry 13 repeated in acetate buffer at pH 7.3
[8] = 100 mM sodium acetate and 1.0 mM EDTA (pH 5.5)

| Compound | Average association constants Ka, M. tuberculosis (HRP6) [2] | Average association constants Ka, H. Sapiens (HRP5) [3] | Ka (RNA hairpin HRP2 (A-U) [4]; [8]) | -ΔG (RNA hairpin HRP2 (A-U) [4]) | -ΔH (RNA hairpin HRP2 (A-U) [4]) | -ΔS (RNA hairpin HRP2 (A-U) [4]) | other results |
| --- | --- | --- | --- | --- | --- | --- | --- |
| Nc1cc[nH]c(=O)n1 [cytosine] |  |  |  |  |  |  | pKa [1]: ~4.5 |
| H-CCCTPCTT (cysteine pairing not given here) [PNA13] | 1.5e+06 M⁻¹ | NB[b] (No binding; Ka < 10^3 M^−1.) |  |  |  |  |  |
| NH2-CCCTGCTT [PNA10] | 1.2e+06 M⁻¹ | 400000 M⁻¹ |  |  |  |  |  |
| NH2-CCCTL-ArgGCTL-ArgT [GPNA10] | 500000 M⁻¹ | 2.8e+06 M⁻¹ |  |  |  |  |  |
| NH2-CCCTPexCTT [PNA14] | 2e+06 M⁻¹ | NB[b] (No binding; Ka < 10^3 M^−1.) |  |  |  |  |  |
| NH2-CCTGCTT [PNA11] | 200000 M⁻¹ | 40000 M⁻¹ |  |  |  |  |  |
| NH2-CTCTD-ArgTC [D-GPNA2] |  |  | 500000 M⁻¹ | 32.6 kJ/mol | 293 kJ/mol | 209 eu |  |
| NH2-CTCTL-ArgTC [L-GPNA2] |  |  | 1.8e+06 M⁻¹ | 35.6 kJ/mol | 166 kJ/mol | 104 eu |  |
| NH2-CTD-ArgCCTD-ArgC [D-GPNA1] |  |  | 300000 M⁻¹ |  |  |  | Ka (RNA hairpin HRP1 (G-C) [5]): 4.6 ± 1.6 ×10^6 M^−1 and 4.6 ×10^6 M^−1; -ΔG (RNA hairpin HRP1 (G-C) [5]): 38.1 ± 0.84 kJ/mol; -ΔH (RNA hairpin HRP1 (G-C) [5]): 114 ± 10.5 kJ/mol; -ΔS (RNA hairpin HRP1 (G-C) [5]): 61 ± 9 eu; -ΔG (DNA version of HRP1): 32.2 kJ/mol; -ΔH (DNA version of HRP1): 122 kJ/mol; -ΔS (DNA version of HRP1): 72 eu; Ka (DNA version of HRP1): 400000 M⁻¹; Average association constants Ka, HRP3 (C-G) (RNA hairpin HRP3 (C-G)): 700000 M⁻¹; Average association constants Ka, HRP4 (U-A) (RNA hairpin HRP4 (U-A)): 1.3e+06 M⁻¹; binding to HRP1 under physiologically relevant conditions (RNA hairpin HRP1 (G-C) [6]): no binding |
| NH2-CTD-ArgCTD-ArgTD-ArgC [D-GPNA4] |  |  | 600000 M⁻¹ | 33.1 kJ/mol | 95.8 kJ/mol | 50 eu |  |
| NH2-CTD-ArgCTTD-ArgC [D-GPNA3] |  |  | 500000 M⁻¹ | 32.6 kJ/mol | 175 kJ/mol | 114 eu |  |
| NH2-CTD-ArgTCTD-ArgC [D-GPNA6] |  |  | 5e+06 M⁻¹ | 38.1 kJ/mol | 56.1 kJ/mol | 14 eu |  |
| NH2-CTD-ArgTD-ArgCTD-ArgC [D-GPNA7] |  |  | 0.4 ± 0.01 ×10^6 M^−1 | 31.8 ± 0 kJ/mol | 108 ± 15.5 kJ/mol | 61 ± 13 eu |  |
| NH2-CTGCTT [PNA12] | 200000 M⁻¹ | 60000 M⁻¹ |  |  |  |  |  |
| NH2-CTL-ArgCCTL-ArgC [L-GPNA1] |  |  | 800000 M⁻¹ |  |  |  | Ka (RNA hairpin HRP1 (G-C) [5]): 2.2 ± 1.6 ×10^6 M^−1 and 2.2 ×10^6 M^−1; -ΔG (RNA hairpin HRP1 (G-C) [5]): 36 ± 2.1 kJ/mol; -ΔH (RNA hairpin HRP1 (G-C) [5]): 101 ± 40.2 kJ/mol; -ΔS (RNA hairpin HRP1 (G-C) [5]): 53 ± 34 eu; -ΔG (DNA version of HRP1): 36.4 kJ/mol; -ΔH (DNA version of HRP1): 87.9 kJ/mol; -ΔS (DNA version of HRP1): 41 eu; Ka (DNA version of HRP1): 2.5e+06 M⁻¹; Average association constants Ka, HRP3 (C-G) (RNA hairpin HRP3 (C-G)): 600000 M⁻¹; Average association constants Ka, HRP4 (U-A) (RNA hairpin HRP4 (U-A)): 400000 M⁻¹ |
| NH2-CTL-ArgCTL-ArgTL-ArgC [L-GPNA4] |  |  | 500000 M⁻¹ | 32.6 kJ/mol | 258 kJ/mol | 181 eu |  |
| NH2-CTL-ArgCTTL-ArgC [L-GPNA3] |  |  | 800000 M⁻¹ | 33.5 kJ/mol | 246 kJ/mol | 170 eu |  |
| NH2-CTL-ArgGCTT [GPNA12] | 400000 M⁻¹ | 800000 M⁻¹ |  |  |  |  |  |
| NH2-CTL-ArgTL-ArgCTL-ArgC [L-GPNA7] |  |  | 3.8 ± 0.1 ×10^6 M^−1 | 37.2 ± 1.3 kJ/mol | 54.4 ± 30.5 kJ/mol | 14 ± 25 eu |  |
| NH2-CTTD-ArgCTC [D-GPNA5] |  |  | 1.05e+07 M⁻¹ | 40.2 kJ/mol | 82.8 kJ/mol | 34 eu | Ka (RNA hairpin HRP2 (A-U) [4]; pH 5.5, antiparallel GPNA): ~10^7; binding to HRP2 in acetate buffer at pH 7.3 (RNA hairpin HRP2 (A-U) [7]): no binding |
| NH2CTL-ArgGCTL-ArgT [GPNA13] | 2.9e+06 M⁻¹ | 8.1e+06 M⁻¹ |  |  |  |  |  |
